How the values were obtained:
Assay type in all cases: cell-based
5-HT2B = molecular target: T1, 5-HT2B (Homo sapiens, UniProt P41595); test: Activation in a similar Ca2+ flux assay at a single concentration, 5-HT2B; settings: head prints 10 µM
T1 construct: host or cells: CHO-K1
Experimental: Activity at 5-HT2A, 5-HT2B and 5-HT2C receptors was determined using a FLIPR Ca2+ flux assay at WuXi AppTec Co. Ltd. (Hong Kong) Discovery Biology Unit according to their standard protocols. Briefly, stably transfected cells expressing the receptor of interest (HEK293 for 5-HT2A and 5-HT2C; CHO-K1 for 5-HT2B) were grown and plated in a 384 well plate and incubated at 37° C. and 5% CO2 overnight. A 250 mM stock solution of probenecid in FLIPR calcium assay buffer (10 mL) was freshly prepared and combined with a fluorescent dye (Fluo-4 Direct) to give a final assay concentration of 2.5 mM. Reference compounds were 4-fold serially diluted and the screening compounds were 3-fold serially diluted in 100% DMSO for 10 points using Agilent Bravo, and 750 nL was added to a 384 well compound plate using Echo along with 30 μL assay buffer. The fluorescent dye was then added to the assay plate along with assay buffer to a final volume of 40 μL. The cell plate was incubated for 50 min at 37° C. and 5% CO2 and placed into the FLIPR Tetra along with the compound plate. 10 μL of references and compounds were then transferred from the compound plate into the cell plate and the fluorescent signal was read.
Activation data are provided in a similar assay tested at a single 10 μM concentration.

5-HT2A = molecular target: T2, 5-HT2A (Homo sapiens, UniProt P28223); test: FLIPR Ca2+ flux functional assay, 5-HT2A (HEK293); settings: HEK293 cells expressing 5-HT2A; for Emax: HEK293, agonist activity; for EC50: agonist activity
T2 construct: host or cells: HEK293

5-HT2C = molecular target: T3, 5-HT2C (Homo sapiens, UniProt P28335); test: FLIPR Ca2+ flux functional assay, 5-HT2C (HEK293); settings: HEK293 cells expressing 5-HT2C; for Emax: HEK293, agonist activity; for EC50: agonist activity
T3 construct: host or cells: HEK293
T3 sequence (P28335 33-458): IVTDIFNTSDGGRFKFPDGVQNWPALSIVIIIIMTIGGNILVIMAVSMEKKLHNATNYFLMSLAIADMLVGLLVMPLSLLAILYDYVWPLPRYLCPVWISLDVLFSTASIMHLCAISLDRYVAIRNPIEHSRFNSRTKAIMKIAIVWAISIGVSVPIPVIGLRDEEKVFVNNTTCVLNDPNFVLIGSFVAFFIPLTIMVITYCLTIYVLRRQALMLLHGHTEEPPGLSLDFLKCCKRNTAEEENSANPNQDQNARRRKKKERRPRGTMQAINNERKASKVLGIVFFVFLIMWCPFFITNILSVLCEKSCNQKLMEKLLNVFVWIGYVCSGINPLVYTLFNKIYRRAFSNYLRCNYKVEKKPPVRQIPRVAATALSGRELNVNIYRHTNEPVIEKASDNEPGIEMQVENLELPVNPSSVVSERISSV

T1 sequence (P41595 whole entry, species assumed): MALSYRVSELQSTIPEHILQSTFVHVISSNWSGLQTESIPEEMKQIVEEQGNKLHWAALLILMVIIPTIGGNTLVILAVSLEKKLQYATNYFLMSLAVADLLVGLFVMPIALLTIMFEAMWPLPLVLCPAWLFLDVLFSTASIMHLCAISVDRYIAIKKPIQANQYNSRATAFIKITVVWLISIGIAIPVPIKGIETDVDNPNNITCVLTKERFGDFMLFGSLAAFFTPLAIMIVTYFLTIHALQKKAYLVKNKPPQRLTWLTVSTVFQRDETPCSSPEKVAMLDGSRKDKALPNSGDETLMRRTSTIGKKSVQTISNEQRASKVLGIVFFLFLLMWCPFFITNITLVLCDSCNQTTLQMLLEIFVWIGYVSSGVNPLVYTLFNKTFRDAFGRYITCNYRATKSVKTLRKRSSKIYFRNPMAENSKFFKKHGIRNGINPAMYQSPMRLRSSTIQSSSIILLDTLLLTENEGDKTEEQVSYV
T2 sequence (P28223 whole entry): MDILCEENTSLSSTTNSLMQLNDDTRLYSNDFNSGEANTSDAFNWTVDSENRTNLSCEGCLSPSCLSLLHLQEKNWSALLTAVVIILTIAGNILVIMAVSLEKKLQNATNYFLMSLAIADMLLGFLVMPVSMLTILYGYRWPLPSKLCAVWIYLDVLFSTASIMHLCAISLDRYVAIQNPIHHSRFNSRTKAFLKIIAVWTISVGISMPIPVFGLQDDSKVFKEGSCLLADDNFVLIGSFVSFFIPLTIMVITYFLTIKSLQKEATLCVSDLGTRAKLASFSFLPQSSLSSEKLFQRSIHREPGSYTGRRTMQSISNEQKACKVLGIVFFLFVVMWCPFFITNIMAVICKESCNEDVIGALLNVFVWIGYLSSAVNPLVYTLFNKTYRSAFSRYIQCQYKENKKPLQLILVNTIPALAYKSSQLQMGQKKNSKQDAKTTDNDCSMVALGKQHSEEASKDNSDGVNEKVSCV

SMILES | 5-HT2B % Activation @ 10 µM (5-HT2B) | Emax (5-HT2A) | EC50 (5-HT2A) | Emax (5-HT2C) | EC50 (5-HT2C)
COc1c(F)ccc2[nH]nc(CCN(C)C)c12 [Example A1, 2-(5-fluoro-4-methoxy-1H-indazol-3-yl)-N,N-dimethylethan-1-amine] | 21% | 82% | 28.3 nM | 84% | 8.21 nM
CCN(C)CCc1n[nH]c2ccc(F)c(OC)c12 [Example A2, N-ethyl-2-(5-fluoro-4-methoxy-1H-indazol-3-yl)-N-methylethan-1-amine] | 57% | 87% | 31.5 nM | 86% | 15.5 nM
COc1c(F)ccc2[nH]nc(CCN(C)C(C)C)c12 [Example A3, N-(2-(5-fluoro-4-methoxy-1H-indazol-3-yl)ethyl)-N-methylpropan-2-amine] | 17% | 76% | 96.5 nM | 80% | 170 nM
COc1c(F)ccc2[nH]nc(CCN(C)C3CC3)c12 [Example A4, N-(2-(5-fluoro-4-methoxy-1H-indazol-3-yl)ethyl)-N-methylcyclopropanamine] | 2% | 67% | 62.7 nM | 91% | 17.1 nM
CCN(C)CCc1n[nH]c2cc(F)c(OC)cc12 [Example A6, N-ethyl-2-(6-fluoro-5-methoxy-1H-indazol-3-yl)-N-methylethan-1-amine] | 40% | 86% | 110 nM | 101% | 786 nM
COc1cc2c(CCN(C)C(C)C)n[nH]c2cc1F [Example A7, N-(2-(6-fluoro-5-methoxy-1H-indazol-3-yl)ethyl)-N-methylpropan-2-amine] | 7% | 63% | 318 nM | 67% | 4180 nM
COc1cc2c(CCN(C)C3CC3)n[nH]c2cc1F [Example A8, N-(2-(6-fluoro-5-methoxy-1H-indazol-3-yl)ethyl)-N-methylcyclopropanamine] | 6% | 71% | 208 nM | 102% | 507 nM
COc1ccc2[nH]nc(CCN(C)C)c2c1F [Example A9, 2-(4-fluoro-5-methoxy-1H-indazol-3-yl)-N,N-dimethylethan-1-amine] | 0% | 75% | 809 nM | 73% | 1100 nM
CCN(C)CCc1n[nH]c2ccc(OC)c(F)c12 [Example A10, N-ethyl-2-(4-fluoro-5-methoxy-1H-indazol-3-yl)-N-methylethan-1-amine] | 1% | 69% | 831 nM | 68% | 2860 nM
COc1ccc2[nH]nc(CCN(C)C(C)C)c2c1F [Example A11, N-(2-(4-fluoro-5-methoxy-1H-indazol-3-yl)ethyl)-N-methylpropan-2-amine] | 0% | 64% | 1380 nM | 22% | > 10000 nM
CN(C)CCc1n[nH]c2cccc(F)c12 [Example A13, 2-(4-fluoro-1H-indazol-3-yl)-N,N-dimethylethan-1-amine] | 0% | 55% | 2050 nM | 48% | 944 nM
CN(C)CCc1n[nH]c2ccc(F)cc12 [Example A17, 2-(5-fluoro-1H-indazol-3-yl)-N,N-dimethylethan-1-amine] | 25% | 82% | 167 nM | 80% | 34 nM
CCN(C)CCc1n[nH]c2ccc(F)cc12 [Example A18, N-ethyl-2-(5-fluoro-1H-indazol-3-yl)-N-methylethan-1-amine] | 16% | 55% | 264 nM | 79% | 128 nM
CC(C)N(C)CCc1n[nH]c2ccc(F)cc12 [Example A19, N-(2-(5-fluoro-1H-indazol-3-yl)ethyl)-N-methylpropan-2-amine] | 1% | 25% | > 10000 nM | 69% | 1520 nM
CN(CCc1n[nH]c2ccc(F)cc12)C1CC1 [Example A20, N-(2-(5-fluoro-1H-indazol-3-yl)ethyl)-N-methylcyclopropanamine] | 1% | 45% | 419 nM | 83% | 206 nM
CCN(C)CCc1n[nH]c2cc(F)cc(F)c12 [Example A29, 2-(4,6-difluoro-1H-indazol-3-yl)-N-ethyl-N-methylethan-1-amine] | 0% | 33% | 687 nM | 70% | 1480 nM
COc1ccccc1CNCCc1n[nH]c2cc(F)cc(F)c12 [Example A33, 2-(4,6-difluoro-1H-indazol-3-yl)-N-(2-methoxybenzyl)ethan-1-amine] | 23% | 91% | 14.4 nM | 90% | 159 nM
COc1ccccc1CNCCc1n[nH]c2cccc(F)c12 [Example A34, 2-(4-fluoro-1H-indazol-3-yl)-N-(2-methoxybenzyl)ethan-1-amine] | 0% | 86% | 55.2 nM | 84% | 167 nM
COc1cc(F)cc2[nH]nc(CCN3CCC3)c12 [Example A41, 3-(2-(azetidin-1-yl)ethyl)-6-fluoro-4-methoxy-1H-indazole] |  | 78% | 1080 nM | 65% | 1420 nM
COc1cc(F)cc2[nH]nc(CCN3CCCC3)c12 [Example A42, 6-fluoro-4-methoxy-3-(2-(pyrrolidin-1-yl)ethyl)-1H-indazole] |  | 81% | 697 nM | 89% | 944 nM
COc1ccc(F)c2[nH]nc(CCN3CCCC3)c12 [Example A48, 7-fluoro-4-methoxy-3-(2-(pyrrolidin-1-yl)ethyl)-1H-indazole] |  | 70% | 533 nM | 67% | 556 nM
COc1cc(F)c2[nH]nc(CCN3CCCC3)c2c1 [Example A54, 7-fluoro-5-methoxy-3-(2-(pyrrolidin-1-yl)ethyl)-1H-indazole] |  | 75% | 1380 nM | 38% | 3260 nM
COc1cc2c(CCN3CC4CC4C3)n[nH]c2cc1F (centres unmarked) [Example A61, 3-(2-(3-azabicyclo[3.1.0]hexan-3-yl)ethyl)-6-fluoro-5-methoxy-1H-indazole] |  | 67% | 1580 nM | 21% | > 10000 nM
Fc1ccc2[nH]nc(CCN3CCC3)c2c1F [Example A72, 3-(2-(azetidin-1-yl)ethyl)-4,5-difluoro-1H-indazole] |  | 78% | 1350 nM | 37% | 973 nM
COc1cc2c(CCN3CCC4CC43)nn(C)c2cc1F (centres unmarked) [Example A75, 3-(2-(2-azabicyclo[3.1.0]hexan-2-yl)ethyl)-6-fluoro-5-methoxy-1-methyl-1H-indazole] |  | 77% | 63.4 nM |  | 
